The target of test [1] is 5-hydroxytryptamine receptor 7 (Homo sapiens, UniProt P34969). Description: In vitro binding affinity towards cloned human 5-HT7 receptor using [3H]5-carboximidotryptamine as radioligand.
Test [2] concerns the target D(2) dopamine receptor (Homo sapiens, UniProt P14416). Description: Affinity towards cloned Dopamine receptor D2.
Test [3] addresses D(3) dopamine receptor (Homo sapiens, UniProt P35462). The test is described as follows: Affinity towards cloned Dopamine receptor D3.
The target of test [4] is T1, D(4) dopamine receptor (Homo sapiens, UniProt P21917).
T1 sequence (P21917 whole entry): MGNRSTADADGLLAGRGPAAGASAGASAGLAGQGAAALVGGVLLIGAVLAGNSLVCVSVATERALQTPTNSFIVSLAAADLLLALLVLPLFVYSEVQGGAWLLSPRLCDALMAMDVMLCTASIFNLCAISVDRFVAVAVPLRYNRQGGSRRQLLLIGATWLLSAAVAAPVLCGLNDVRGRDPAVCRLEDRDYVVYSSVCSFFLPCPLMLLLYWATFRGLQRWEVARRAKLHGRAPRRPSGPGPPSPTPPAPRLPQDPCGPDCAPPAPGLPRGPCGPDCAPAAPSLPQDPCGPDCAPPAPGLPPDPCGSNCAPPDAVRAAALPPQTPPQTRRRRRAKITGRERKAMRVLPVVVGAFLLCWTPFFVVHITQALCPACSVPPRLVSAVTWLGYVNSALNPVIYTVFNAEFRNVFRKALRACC
The test is described as follows: Affinity towards cloned Dopamine receptor D4.

Test [5] deals with T2, Muscarinic acetylcholine receptor M1 (Homo sapiens, UniProt P11229).
T2 sequence (P11229 whole entry): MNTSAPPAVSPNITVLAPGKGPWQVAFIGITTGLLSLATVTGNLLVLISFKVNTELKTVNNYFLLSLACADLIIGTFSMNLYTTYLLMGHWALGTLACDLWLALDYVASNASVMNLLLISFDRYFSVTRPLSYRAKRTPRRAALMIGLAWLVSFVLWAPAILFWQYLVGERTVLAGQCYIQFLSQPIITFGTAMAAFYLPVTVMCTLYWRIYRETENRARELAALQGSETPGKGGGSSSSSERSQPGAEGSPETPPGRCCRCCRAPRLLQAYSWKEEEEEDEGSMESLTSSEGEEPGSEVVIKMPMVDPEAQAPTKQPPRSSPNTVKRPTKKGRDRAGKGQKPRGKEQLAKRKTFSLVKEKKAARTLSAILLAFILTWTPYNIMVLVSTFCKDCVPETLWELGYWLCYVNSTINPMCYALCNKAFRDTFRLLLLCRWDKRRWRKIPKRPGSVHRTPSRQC
The test is described as follows: Affinity towards cloned Muscarinic acetylcholine receptor M1.

In test [6] the target is Kappa-type opioid receptor (Homo sapiens, UniProt P41145). The test is described as follows: Affinity towards cloned Opioid receptor kappa 1.
Kappa-type opioid receptor, sequence (P41145 whole entry): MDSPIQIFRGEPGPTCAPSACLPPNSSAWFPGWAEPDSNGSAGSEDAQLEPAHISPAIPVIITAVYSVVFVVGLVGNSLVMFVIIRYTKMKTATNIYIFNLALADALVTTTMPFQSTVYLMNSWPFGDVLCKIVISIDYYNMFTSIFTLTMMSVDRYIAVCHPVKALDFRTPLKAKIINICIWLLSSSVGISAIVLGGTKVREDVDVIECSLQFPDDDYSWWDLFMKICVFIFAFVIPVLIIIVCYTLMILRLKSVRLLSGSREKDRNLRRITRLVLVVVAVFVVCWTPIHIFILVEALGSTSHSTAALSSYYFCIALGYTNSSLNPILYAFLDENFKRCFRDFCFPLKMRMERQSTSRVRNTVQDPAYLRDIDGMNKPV
Test [7] addresses D(1B) dopamine receptor (Homo sapiens, UniProt P21918). The test is described as follows: Affinity towards cloned Dopamine receptor D5.
Test [8] has as its target Muscarinic acetylcholine receptor M3 (Homo sapiens, UniProt P20309). The test is described as follows: Affinity towards cloned Muscarinic acetylcholine receptor M3.
Test [9] deals with Histamine H1 receptor (Homo sapiens, UniProt P35367). Description: Affinity towards cloned Histamine H1 receptor.
Histamine H1 receptor, sequence (P35367 whole entry): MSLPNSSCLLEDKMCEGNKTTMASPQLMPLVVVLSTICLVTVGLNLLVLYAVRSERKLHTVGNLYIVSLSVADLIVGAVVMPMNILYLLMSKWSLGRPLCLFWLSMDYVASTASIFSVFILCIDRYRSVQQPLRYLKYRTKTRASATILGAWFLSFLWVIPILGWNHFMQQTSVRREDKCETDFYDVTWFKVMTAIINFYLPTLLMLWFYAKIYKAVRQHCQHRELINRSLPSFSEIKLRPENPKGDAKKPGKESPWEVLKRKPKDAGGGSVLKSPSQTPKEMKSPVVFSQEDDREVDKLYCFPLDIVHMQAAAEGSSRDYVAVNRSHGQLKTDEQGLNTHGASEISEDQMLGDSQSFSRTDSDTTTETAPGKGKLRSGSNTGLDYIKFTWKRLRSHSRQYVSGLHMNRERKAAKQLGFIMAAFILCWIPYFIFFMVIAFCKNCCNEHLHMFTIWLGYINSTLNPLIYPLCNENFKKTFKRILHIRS
The target in test [10] is Mu-type opioid receptor (Homo sapiens, UniProt P35372). The test is described as follows: Affinity towards cloned Opioid receptor mu 1.
Mu-type opioid receptor, sequence (P35372 whole entry): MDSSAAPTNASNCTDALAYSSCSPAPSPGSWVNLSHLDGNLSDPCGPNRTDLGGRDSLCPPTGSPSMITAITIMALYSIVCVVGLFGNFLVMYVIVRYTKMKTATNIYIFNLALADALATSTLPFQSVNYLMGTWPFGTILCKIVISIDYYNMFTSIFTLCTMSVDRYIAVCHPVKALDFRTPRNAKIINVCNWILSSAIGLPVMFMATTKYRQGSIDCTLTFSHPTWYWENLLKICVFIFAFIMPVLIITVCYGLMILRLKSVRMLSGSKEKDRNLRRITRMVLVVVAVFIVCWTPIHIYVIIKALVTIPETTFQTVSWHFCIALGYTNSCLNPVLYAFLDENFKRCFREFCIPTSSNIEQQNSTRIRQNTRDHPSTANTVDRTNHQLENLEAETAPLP
Test [11] addresses 5-hydroxytryptamine receptor 1B (Homo sapiens, UniProt P28222). Description: In vitro binding affinity towards cloned human 5-HT1B receptor using [3H]5-carboximidotryptamine as radioligand.
Test [12] addresses 5-hydroxytryptamine receptor 2A (Homo sapiens, UniProt P28223). The test is described as follows: In vitro binding affinity towards cloned human 5-HT2A receptor using [3H]5-carboximidotryptamine as radioligand.
Test [13] has as its target T3, Muscarinic acetylcholine receptor M5 (Homo sapiens, UniProt P08912).
T3 sequence (P08912 whole entry): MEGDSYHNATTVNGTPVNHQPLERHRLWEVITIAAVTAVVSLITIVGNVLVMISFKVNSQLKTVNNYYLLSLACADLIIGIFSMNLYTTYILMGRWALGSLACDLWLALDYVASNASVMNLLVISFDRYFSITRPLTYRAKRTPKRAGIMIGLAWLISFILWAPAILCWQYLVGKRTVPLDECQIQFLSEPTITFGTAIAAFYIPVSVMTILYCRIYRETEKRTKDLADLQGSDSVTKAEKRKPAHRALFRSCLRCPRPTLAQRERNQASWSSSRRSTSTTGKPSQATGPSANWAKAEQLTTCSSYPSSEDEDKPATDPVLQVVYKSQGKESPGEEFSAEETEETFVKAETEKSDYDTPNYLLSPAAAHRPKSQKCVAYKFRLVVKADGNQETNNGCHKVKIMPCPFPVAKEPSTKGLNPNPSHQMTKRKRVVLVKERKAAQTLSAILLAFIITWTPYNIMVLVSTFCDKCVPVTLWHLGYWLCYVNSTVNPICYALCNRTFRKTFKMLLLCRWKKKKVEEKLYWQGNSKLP
The test is described as follows: Affinity towards cloned Muscarinic acetylcholine receptor M5.

The target in test [14] is T4, Muscarinic acetylcholine receptor M4 (Homo sapiens, UniProt P08173).
T4 sequence (P08173 whole entry): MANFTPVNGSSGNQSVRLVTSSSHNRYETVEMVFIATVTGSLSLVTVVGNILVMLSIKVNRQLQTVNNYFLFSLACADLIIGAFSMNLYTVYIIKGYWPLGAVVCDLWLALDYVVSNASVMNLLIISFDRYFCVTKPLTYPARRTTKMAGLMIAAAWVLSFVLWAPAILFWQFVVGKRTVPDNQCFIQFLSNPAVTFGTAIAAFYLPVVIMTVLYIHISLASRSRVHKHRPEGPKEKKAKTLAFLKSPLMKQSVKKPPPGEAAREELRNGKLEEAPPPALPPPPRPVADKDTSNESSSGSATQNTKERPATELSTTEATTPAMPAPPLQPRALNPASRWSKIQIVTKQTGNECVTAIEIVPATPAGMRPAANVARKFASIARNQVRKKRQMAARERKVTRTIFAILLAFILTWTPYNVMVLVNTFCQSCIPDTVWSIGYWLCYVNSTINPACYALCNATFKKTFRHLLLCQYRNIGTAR
Description: Affinity towards cloned Muscarinic acetylcholine receptor M4.

Test [15] concerns the target D(1A) dopamine receptor (Homo sapiens, UniProt P21728). Description: Affinity towards cloned Dopamine receptor D1.
The target of test [16] is 5-hydroxytryptamine receptor 6 (Homo sapiens, UniProt P50406). The test is described as follows: In vitro binding affinity towards cloned human 5-HT6 receptor using [3H]5-carboximidotryptamine as radioligand.
Test [17] addresses 5-hydroxytryptamine receptor 1D (Homo sapiens, UniProt P28221). Description: In vitro binding affinity towards cloned human 5-HT1D receptor using [3H]5-carboximidotryptamine as radioligand.
The target in test [18] is T5, 5-hydroxytryptamine receptor 2C (Homo sapiens, UniProt P28335).
T5 sequence (P28335 whole entry): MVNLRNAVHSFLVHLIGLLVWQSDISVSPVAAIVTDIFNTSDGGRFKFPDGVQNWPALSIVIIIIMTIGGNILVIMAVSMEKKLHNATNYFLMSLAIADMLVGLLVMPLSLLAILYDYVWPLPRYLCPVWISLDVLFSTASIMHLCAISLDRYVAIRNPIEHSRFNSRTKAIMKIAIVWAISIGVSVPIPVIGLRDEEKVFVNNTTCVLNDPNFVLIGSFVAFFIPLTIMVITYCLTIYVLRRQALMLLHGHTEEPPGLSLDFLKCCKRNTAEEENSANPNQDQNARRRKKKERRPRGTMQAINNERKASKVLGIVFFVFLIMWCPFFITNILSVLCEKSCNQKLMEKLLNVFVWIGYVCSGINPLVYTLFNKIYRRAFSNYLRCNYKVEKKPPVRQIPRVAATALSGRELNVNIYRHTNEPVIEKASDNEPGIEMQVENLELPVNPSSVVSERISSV
The test is described as follows: In vitro binding affinity towards cloned human 5-HT2C receptor using [3H]5-carboximidotryptamine as radioligand.

Test [19] deals with Delta-type opioid receptor (Homo sapiens, UniProt P41143). The test is described as follows: Affinity towards cloned Opioid receptor delta 1.
Delta-type opioid receptor, sequence (P41143 whole entry): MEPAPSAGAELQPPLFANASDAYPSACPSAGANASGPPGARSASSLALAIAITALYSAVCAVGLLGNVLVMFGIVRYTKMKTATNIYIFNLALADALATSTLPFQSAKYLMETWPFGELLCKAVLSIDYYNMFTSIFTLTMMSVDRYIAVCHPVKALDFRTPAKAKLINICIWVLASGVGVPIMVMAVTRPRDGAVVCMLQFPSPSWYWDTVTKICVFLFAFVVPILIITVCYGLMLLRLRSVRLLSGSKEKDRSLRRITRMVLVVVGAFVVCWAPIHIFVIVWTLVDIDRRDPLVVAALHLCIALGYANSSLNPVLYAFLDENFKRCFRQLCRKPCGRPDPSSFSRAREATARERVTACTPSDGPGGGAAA
A short description of test [20]: Affinity towards cloned Nicotinic acetylcholine receptor.
Test [21] concerns the target T6, Muscarinic acetylcholine receptor M2 (Homo sapiens, UniProt P08172).
T6 sequence (P08172 whole entry): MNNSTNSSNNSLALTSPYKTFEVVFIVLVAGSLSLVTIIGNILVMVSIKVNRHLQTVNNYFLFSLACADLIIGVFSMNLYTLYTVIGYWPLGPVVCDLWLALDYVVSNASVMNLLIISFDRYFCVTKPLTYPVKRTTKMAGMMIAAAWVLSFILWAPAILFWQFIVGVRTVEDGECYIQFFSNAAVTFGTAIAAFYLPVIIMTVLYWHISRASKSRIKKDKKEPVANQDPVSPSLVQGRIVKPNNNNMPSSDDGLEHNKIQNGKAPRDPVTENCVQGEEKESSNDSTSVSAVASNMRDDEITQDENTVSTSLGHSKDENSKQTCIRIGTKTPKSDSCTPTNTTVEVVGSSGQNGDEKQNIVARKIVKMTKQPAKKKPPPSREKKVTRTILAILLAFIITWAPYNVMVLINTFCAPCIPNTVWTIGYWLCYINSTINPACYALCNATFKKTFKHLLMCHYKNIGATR
The test is described as follows: Affinity towards cloned Muscarinic acetylcholine receptor M2.

5-hydroxytryptamine receptor 1D, sequence (P28221 whole entry): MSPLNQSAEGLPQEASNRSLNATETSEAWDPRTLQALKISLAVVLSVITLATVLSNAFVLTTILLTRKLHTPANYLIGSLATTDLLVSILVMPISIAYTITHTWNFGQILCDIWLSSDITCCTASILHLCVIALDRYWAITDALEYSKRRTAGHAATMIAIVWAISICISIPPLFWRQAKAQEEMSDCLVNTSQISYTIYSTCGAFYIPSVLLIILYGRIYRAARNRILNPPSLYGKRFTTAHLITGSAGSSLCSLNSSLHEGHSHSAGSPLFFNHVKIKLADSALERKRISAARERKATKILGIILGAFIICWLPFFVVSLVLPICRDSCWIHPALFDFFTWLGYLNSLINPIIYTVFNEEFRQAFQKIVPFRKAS
D(1A) dopamine receptor, sequence (P21728 whole entry): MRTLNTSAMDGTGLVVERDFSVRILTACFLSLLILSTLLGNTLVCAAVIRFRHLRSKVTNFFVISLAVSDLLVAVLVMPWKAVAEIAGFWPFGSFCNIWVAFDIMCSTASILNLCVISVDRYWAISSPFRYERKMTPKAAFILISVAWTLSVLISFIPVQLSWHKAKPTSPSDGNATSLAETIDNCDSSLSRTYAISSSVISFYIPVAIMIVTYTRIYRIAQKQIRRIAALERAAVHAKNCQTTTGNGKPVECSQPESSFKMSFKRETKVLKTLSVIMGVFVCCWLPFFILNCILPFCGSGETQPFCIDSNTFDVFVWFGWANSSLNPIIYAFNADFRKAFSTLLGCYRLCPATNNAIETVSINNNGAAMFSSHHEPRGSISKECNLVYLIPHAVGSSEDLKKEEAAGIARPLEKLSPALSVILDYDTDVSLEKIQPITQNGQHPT
D(3) dopamine receptor, sequence (P35462 whole entry): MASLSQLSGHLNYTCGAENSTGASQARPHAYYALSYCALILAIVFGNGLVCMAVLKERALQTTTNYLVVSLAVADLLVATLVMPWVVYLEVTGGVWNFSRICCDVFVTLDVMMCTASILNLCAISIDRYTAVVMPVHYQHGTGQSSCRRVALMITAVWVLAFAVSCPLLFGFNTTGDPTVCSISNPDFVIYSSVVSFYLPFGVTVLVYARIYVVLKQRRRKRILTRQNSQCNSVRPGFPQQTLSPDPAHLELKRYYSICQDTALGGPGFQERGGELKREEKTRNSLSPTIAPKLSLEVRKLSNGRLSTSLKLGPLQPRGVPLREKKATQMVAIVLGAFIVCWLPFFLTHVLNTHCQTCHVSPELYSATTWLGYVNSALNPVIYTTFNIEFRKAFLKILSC
Muscarinic acetylcholine receptor M3, sequence (P20309 whole entry): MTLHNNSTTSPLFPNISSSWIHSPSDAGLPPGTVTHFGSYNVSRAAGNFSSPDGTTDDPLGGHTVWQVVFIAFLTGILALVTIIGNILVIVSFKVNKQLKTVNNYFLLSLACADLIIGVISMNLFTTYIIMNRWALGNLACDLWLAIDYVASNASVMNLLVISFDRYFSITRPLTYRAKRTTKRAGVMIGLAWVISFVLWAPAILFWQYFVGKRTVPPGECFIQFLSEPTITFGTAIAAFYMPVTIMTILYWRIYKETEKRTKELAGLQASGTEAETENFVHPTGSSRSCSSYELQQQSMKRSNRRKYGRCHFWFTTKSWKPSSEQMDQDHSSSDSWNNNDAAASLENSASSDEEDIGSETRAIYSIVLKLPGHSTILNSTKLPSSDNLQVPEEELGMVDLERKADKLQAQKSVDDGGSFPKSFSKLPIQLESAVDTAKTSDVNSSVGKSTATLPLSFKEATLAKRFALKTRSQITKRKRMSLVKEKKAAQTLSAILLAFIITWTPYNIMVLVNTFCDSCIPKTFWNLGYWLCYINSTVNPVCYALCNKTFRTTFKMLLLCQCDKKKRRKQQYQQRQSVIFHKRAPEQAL
5-hydroxytryptamine receptor 1B, sequence (P28222 whole entry): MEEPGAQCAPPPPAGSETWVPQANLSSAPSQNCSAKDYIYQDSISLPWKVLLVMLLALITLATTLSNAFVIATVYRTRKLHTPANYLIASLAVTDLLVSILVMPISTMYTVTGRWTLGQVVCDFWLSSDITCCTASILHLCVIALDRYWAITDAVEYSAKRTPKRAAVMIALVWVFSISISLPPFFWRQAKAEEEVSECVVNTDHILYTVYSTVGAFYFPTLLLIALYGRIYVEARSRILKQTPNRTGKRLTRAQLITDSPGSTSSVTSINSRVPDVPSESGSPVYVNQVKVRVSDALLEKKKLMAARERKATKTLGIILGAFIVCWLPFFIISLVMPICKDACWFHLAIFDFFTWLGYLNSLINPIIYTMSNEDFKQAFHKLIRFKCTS
5-hydroxytryptamine receptor 7, sequence (P34969 whole entry): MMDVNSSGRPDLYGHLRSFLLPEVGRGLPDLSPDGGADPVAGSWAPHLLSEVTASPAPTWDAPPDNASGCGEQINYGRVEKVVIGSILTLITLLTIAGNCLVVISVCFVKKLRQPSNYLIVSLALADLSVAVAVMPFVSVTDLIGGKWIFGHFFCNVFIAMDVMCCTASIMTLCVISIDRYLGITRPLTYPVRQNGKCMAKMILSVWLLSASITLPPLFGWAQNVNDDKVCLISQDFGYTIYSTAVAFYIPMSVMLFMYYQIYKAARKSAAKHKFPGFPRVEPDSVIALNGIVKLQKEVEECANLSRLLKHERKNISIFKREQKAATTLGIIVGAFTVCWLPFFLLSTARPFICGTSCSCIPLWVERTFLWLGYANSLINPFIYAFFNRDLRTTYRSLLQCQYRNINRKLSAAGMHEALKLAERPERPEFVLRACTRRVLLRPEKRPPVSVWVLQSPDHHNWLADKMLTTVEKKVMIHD
5-hydroxytryptamine receptor 2A, sequence (P28223 whole entry): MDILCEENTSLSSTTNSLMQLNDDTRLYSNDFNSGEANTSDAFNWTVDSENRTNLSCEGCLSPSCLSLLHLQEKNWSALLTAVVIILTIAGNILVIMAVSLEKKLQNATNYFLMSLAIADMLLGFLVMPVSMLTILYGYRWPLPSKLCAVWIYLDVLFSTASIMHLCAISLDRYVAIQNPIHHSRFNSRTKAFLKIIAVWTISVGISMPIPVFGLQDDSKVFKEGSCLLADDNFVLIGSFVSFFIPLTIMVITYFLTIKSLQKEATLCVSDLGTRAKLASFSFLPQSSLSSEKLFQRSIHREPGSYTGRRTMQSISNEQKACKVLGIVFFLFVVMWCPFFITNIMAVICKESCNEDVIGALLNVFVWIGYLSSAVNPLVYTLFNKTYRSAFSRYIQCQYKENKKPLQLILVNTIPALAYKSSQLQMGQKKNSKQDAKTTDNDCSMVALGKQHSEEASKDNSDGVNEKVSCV

Consider `COc1ccc(NC(=O)N2CCN(c3ccccc3OC)CC2)cc1N1CCN(C)CC1`, for which the Ki (commonly a dissociation constant, usually derived from enzyme kinetics or from competition with a known ligand) in [1] is 1.41 µM; in test [2], above 10 µM; in test [3] it was above 10 µM; in [4], above 10 µM; in test [5], above 10 µM; in test [6], above 10 µM. The inhibitory constant (Ki) was above 10 µM in [7]; above 10 µM in test [8]; above 10 µM in test [9]; above 10 µM in test [10]; 0.0124 µM in test [11]; 6.74 µM in test [12]. The inhibitory constant (Ki) in test [13] was above 10 µM; in [14], above 10 µM; in test [15], above 10 µM; in test [16] it was 2.41 µM; in test [17], 0.106 µM; in test [18] it was 1.94 µM. In addition, the Ki in test [19], in [20] and in test [21] was above 10 µM throughout.

Values taken from ChEMBL document CHEMBL1143467, “Synthesis of potent and selective serotonin 5-HT1B receptor ligands” (Bioorg Med Chem Lett, 2005).
